Measured values as given in publication PMC5218480 (PLoS ONE, 2017).

System: MV-4-11 cells
Assay: Gene expression microarray analysis (Affymetrix PrimeView) and GSEA
Format: cell-based, human
Parameters: RFU PODN (11730768_x_at) / Fold change /veh PODN (11730768_x_at) / RFU LINC00158 (11744669_a_at) / Fold change /veh LINC00158 (11744669_a_at) / RFU DUSP10 (11751237_a_at) / Fold change /veh DUSP10 (11751237_a_at) / RFU ID3 (11757404_x_at) / Fold change /veh ID3 (11757404_x_at) / RFU PLEKHG5 (11737974_s_at) / Fold change /veh PLEKHG5 (11737974_s_at) / RFU LRRC4B (11730491_at) / Fold change /veh LRRC4B (11730491_at) / RFU GIMAP4 (11747438_a_at) / Fold change /veh GIMAP4 (11747438_a_at) / RFU KRT8 (11758183_x_at) / Fold change /veh KRT8 (11758183_x_at) / RFU CNN1 (11734310_a_at) / Fold change /veh CNN1 (11734310_a_at) / RFU VPS37D (11726825_at) / Fold change /veh VPS37D (11726825_at) / RFU C10orf10 (11716522_x_at) / Fold change /veh C10orf10 (11716522_x_at) / RFU KIR2DL2 /// KIR2DL4 /// KIR2DL5A /// KIR2DL5B /// KIR2DS1 /// KIR2DS2 /// KIR2DS3 /// KIR2DS4 /// KIR3DL3 /// KIR3DL3 /// KIR3DS1 (11738374_at) / Fold change /veh KIR2DL2 /// KIR2DL4 /// KIR2DL5A /// KIR2DL5B /// KIR2DS1 /// KIR2DS2 /// KIR2DS3 /// KIR2DS4 /// KIR3DL3 /// KIR3DL3 /// KIR3DS1 (11738374_at) / RFU C1QL1 (11718748_at) / Fold change /veh C1QL1 (11718748_at) / RFU TMPRSS4 (11747572_a_at) / Fold change /veh TMPRSS4 (11747572_a_at) / RFU HAMP (11756126_x_at) / Fold change /veh HAMP (11756126_x_at) / RFU RNFT2 (11725882_a_at) / Fold change /veh RNFT2 (11725882_a_at) / RFU NR4A2 (11747474_a_at) / Fold change /veh NR4A2 (11747474_a_at) / RFU ABCC12 (11746883_a_at) / Fold change /veh ABCC12 (11746883_a_at) / RFU TMEM136 (11760407_x_at) / Fold change /veh TMEM136 (11760407_x_at) / RFU CLDN22 /// WWC2 (11732394_at) / Fold change /veh CLDN22 /// WWC2 (11732394_at) / RFU HLA-DPB1 (11760878_x_at) / Fold change /veh HLA-DPB1 (11760878_x_at) / RFU SPINT1 (11716480_a_at) / Fold change /veh SPINT1 (11716480_a_at) / RFU GAP43 (11754022_s_at) / Fold change /veh GAP43 (11754022_s_at) / RFU A4GNT (11735810_at) / Fold change /veh A4GNT (11735810_at) / RFU PRB3 (11715151_x_at) / Fold change /veh PRB3 (11715151_x_at) / RFU TUBB4B (11761932_at) / Fold change /veh TUBB4B (11761932_at) / RFU CAPN14 (11732068_a_at) / Fold change /veh CAPN14 (11732068_a_at) / RFU TMCC2 (11721928_a_at) / Fold change /veh TMCC2 (11721928_a_at) / RFU IRGQ (11745062_a_at) / Fold change /veh IRGQ (11745062_a_at) / RFU FAM174B (11720279_a_at) / Fold change /veh FAM174B (11720279_a_at) / RFU TMPRSS4 (11748680_a_at) / Fold change /veh TMPRSS4 (11748680_a_at) / RFU FAM212B (11763350_a_at) / Fold change /veh FAM212B (11763350_a_at) / RFU PLEKHG5 (11743358_a_at) / Fold change /veh PLEKHG5 (11743358_a_at) / RFU ZSCAN30 (11745921_a_at) / Fold change /veh ZSCAN30 (11745921_a_at) / RFU CMKLR1 (11741424_a_at) / Fold change /veh CMKLR1 (11741424_a_at) / RFU LOC101060620 /// MAPK8IP1 (11723275_at) / Fold change /veh LOC101060620 /// MAPK8IP1 (11723275_at) / RFU SPTSSB (11747773_x_at) / Fold change /veh SPTSSB (11747773_x_at) / RFU PRSS12 (11739890_at) / Fold change /veh PRSS12 (11739890_at) / RFU BIN1 (11741810_x_at) / Fold change /veh BIN1 (11741810_x_at) / RFU WNT11 (11732464_a_at) / Fold change /veh WNT11 (11732464_a_at) / RFU C10orf10 (11716521_a_at) / Fold change /veh C10orf10 (11716521_a_at) / RFU C5orf56 (11738089_at) / Fold change /veh C5orf56 (11738089_at) / RFU CYB561 (11721691_x_at) / Fold change /veh CYB561 (11721691_x_at) / RFU ANKRD19P (11752326_a_at) / Fold change /veh ANKRD19P (11752326_a_at) / RFU OR2T12 /// OR2T33 /// OR2T8 (11738714_s_at) / Fold change /veh OR2T12 /// OR2T33 /// OR2T8 (11738714_s_at) / RFU VCAN (11748164_a_at) / Fold change /veh VCAN (11748164_a_at) / RFU JSRP1 (11732532_at) / Fold change /veh JSRP1 (11732532_at) / RFU KRTAP10-11 (11738290_x_at) / Fold change /veh KRTAP10-11 (11738290_x_at) / RFU MYO3A (11730013_a_at) / Fold change /veh MYO3A (11730013_a_at) / RFU EBF3 (11725865_a_at) / Fold change /veh EBF3 (11725865_a_at) / RFU CAMK2N1 (11719241_x_at) / Fold change /veh CAMK2N1 (11719241_x_at) / RFU C5orf56 (11738088_a_at) / Fold change /veh C5orf56 (11738088_a_at) / RFU OLFML3 (11715873_a_at) / Fold change /veh OLFML3 (11715873_a_at) / RFU LOC100653217 /// NTM (11731650_a_at) / Fold change /veh LOC100653217 /// NTM (11731650_a_at) / RFU MAPK11 (11762145_a_at) / Fold change /veh MAPK11 (11762145_a_at) / RFU FIZ1 (11724087_x_at) / Fold change /veh FIZ1 (11724087_x_at) / RFU OASL (11726364_x_at) / Fold change /veh OASL (11726364_x_at) / RFU SOX15 (11748057_x_at) / Fold change /veh SOX15 (11748057_x_at) / RFU CD79A (11719716_a_at) / Fold change /veh CD79A (11719716_a_at) / RFU HIST1H1D (11736915_at) / Fold change /veh HIST1H1D (11736915_at) / RFU CASKIN2 (11723855_a_at) / Fold change /veh CASKIN2 (11723855_a_at) / RFU LOC730098 (11760151_x_at) / Fold change /veh LOC730098 (11760151_x_at) / RFU OR4N2 (11742367_at) / Fold change /veh OR4N2 (11742367_at) / RFU PRRT2 (11749266_a_at) / Fold change /veh PRRT2 (11749266_a_at) / RFU SNX32 (11753110_a_at) / Fold change /veh SNX32 (11753110_a_at) / RFU CDHR5 (11726645_a_at) / Fold change /veh CDHR5 (11726645_a_at) / RFU RCAN1 (11760418_a_at) / Fold change /veh RCAN1 (11760418_a_at) / RFU FAM167A (11723789_a_at) / Fold change /veh FAM167A (11723789_a_at) / RFU FAM26E (11764081_at) / Fold change /veh FAM26E (11764081_at) / RFU ISYNA1 (11749810_s_at) / Fold change /veh ISYNA1 (11749810_s_at) / RFU ACY1 (11761880_at) / Fold change /veh ACY1 (11761880_at) / RFU 11764098_at / Fold change /veh 11764098_at / RFU SAMD14 (11745864_x_at) / Fold change /veh SAMD14 (11745864_x_at) / RFU NPB (11741838_a_at) / Fold change /veh NPB (11741838_a_at) / RFU TMPRSS6 (11731388_a_at) / Fold change /veh TMPRSS6 (11731388_a_at) / RFU KRTAP10-2 (11738614_at) / Fold change /veh KRTAP10-2 (11738614_at) / RFU ARHGAP8 /// PRR5-ARHGAP8 (11727945_x_at) / Fold change /veh ARHGAP8 /// PRR5-ARHGAP8 (11727945_x_at) / RFU KRTAP5-7 /// NADSYN1 (11734609_at) / Fold change /veh KRTAP5-7 /// NADSYN1 (11734609_at) / RFU RASL12 (11751679_a_at) / Fold change /veh RASL12 (11751679_a_at) / RFU CDKN2B (11736163_a_at) / Fold change /veh CDKN2B (11736163_a_at) / RFU PRF1 (11729649_at) / Fold change /veh PRF1 (11729649_at) / RFU, ZNF638 /// ZNF638-IT1 / Fold change vs veh, ZNF638 /// ZNF638-IT1 / RFU, PANK3 / Fold change vs veh, PANK3 / RFU, SH3YL1 / Fold change vs veh, SH3YL1 / RFU, ZEB2 / Fold change vs veh, ZEB2 / RFU, NRIP1 / Fold change vs veh, NRIP1 / RFU, PTTG1IP / Fold change vs veh, PTTG1IP / RFU, CAPN2 / Fold change vs veh, CAPN2 / RFU, MED14 / Fold change vs veh, MED14 / RFU, SNORA58 / Fold change vs veh, SNORA58 / RFU, C1orf63 / Fold change vs veh, C1orf63 / RFU, LRRFIP1 / Fold change vs veh, LRRFIP1 / RFU, NDUFAF7 / Fold change vs veh, NDUFAF7 / RFU, SLC12A2 / Fold change vs veh, SLC12A2 / RFU, IBTK / Fold change vs veh, IBTK / RFU, ESF1 / Fold change vs veh, ESF1 / Fold change vs veh, TMEM50B / RFU, TAOK1 / Fold change vs veh, TAOK1 / RFU, ACBD3 / Fold change vs veh, ACBD3 / RFU, TMA16 / Fold change vs veh, TMA16 / RFU, RWDD3 / Fold change vs veh, RWDD3 / RFU, BCAT1 / Fold change vs veh, BCAT1 / RFU, EDEM3 / Fold change vs veh, EDEM3 / RFU, TMEM33 / Fold change vs veh, TMEM33 / RFU, WDR75 / Fold change vs veh, WDR75 / RFU, AHCTF1 / Fold change vs veh, AHCTF1 / RFU, TFRC / Fold change vs veh, TFRC / RFU, ZDHHC17 / Fold change vs veh, ZDHHC17 / RFU, NOM1 / Fold change vs veh, NOM1 / RFU, ARL8B / Fold change vs veh, ARL8B / RFU, ZBTB11 / Fold change vs veh, ZBTB11 / RFU, TAMM41 / Fold change vs veh, TAMM41 / RFU, KIAA1704 /// LOC100996395 / Fold change vs veh, KIAA1704 /// LOC100996395 / RFU, ING1 / Fold change vs veh, ING1 / RFU, TRMT61B / Fold change vs veh, TRMT61B / RFU, FUBP3 / Fold change vs veh, FUBP3 / RFU, TP53 / Fold change vs veh, TP53 / RFU, TNKS2 / Fold change vs veh, TNKS2 / RFU, ZFP14 / Fold change vs veh, ZFP14 / RFU, ACTR2 / Fold change vs veh, ACTR2 / RFU, PPP3R1 / Fold change vs veh, PPP3R1 / RFU, PIK3R1 / Fold change vs veh, PIK3R1 / RFU, HNRNPA1 / Fold change vs veh, HNRNPA1 / RFU, RNF170 / Fold change vs veh, RNF170 / RFU, ZNF28 / Fold change vs veh, ZNF28 / RFU, RNGTT / Fold change vs veh, RNGTT / RFU, OGT / Fold change vs veh, OGT / RFU, BRD1 / Fold change vs veh, BRD1 / RFU, MARS / Fold change vs veh, MARS / RFU, ZNF655 / Fold change vs veh, ZNF655 / RFU, FAHD1 / Fold change vs veh, FAHD1 / RFU, BDP1 / Fold change vs veh, BDP1 / RFU, LRRCC1 / Fold change vs veh, LRRCC1 / RFU, ARID1A / Fold change vs veh, ARID1A / RFU, ZNF146 / Fold change vs veh, ZNF146 / RFU, ZNF330 / Fold change vs veh, ZNF330 / RFU, GPN3 / Fold change vs veh, GPN3 / RFU, C9orf123 / Fold change vs veh, C9orf123 / RFU, N4BP2L2 / Fold change vs veh, N4BP2L2 / RFU, ARFIP1 / Fold change vs veh, ARFIP1 / RFU, FAM179B / Fold change vs veh, FAM179B / RFU, BCL10 / Fold change vs veh, BCL10 / RFU, UHRF1BP1L / Fold change vs veh, UHRF1BP1L / RFU, BET1 / Fold change vs veh, BET1 / RFU, CNOT2 / Fold change vs veh, CNOT2 / RFU, ZNF268 / Fold change vs veh, ZNF268 / Fold change vs veh, ZNF507 / RFU, DGCR2 / Fold change vs veh, DGCR2 / RFU, WDSUB1 / Fold change vs veh, WDSUB1 / Fold change vs veh, HSP90B1 /// MIR3652 / RFU, ADSS / Fold change vs veh, ADSS / RFU, GK / Fold change vs veh, GK / RFU, ZNF148 / Fold change vs veh, ZNF148 / RFU, TAF9 / Fold change vs veh, TAF9 / RFU, SLC1A5 / Fold change vs veh, SLC1A5 / RFU, SLMO2 / Fold change vs veh, SLMO2 / RFU, ABCC4 / Fold change vs veh, ABCC4 / RFU, LOC101060439 /// RAP1B / Fold change vs veh, LOC101060439 /// RAP1B / RFU, RFX7 / Fold change vs veh, RFX7 / RFU, GTPBP10 / Fold change vs veh, GTPBP10 / RFU, CNEP1R1 / Fold change vs veh, CNEP1R1 / RFU, BIVM-ERCC5 /// ERCC5 / Fold change vs veh, BIVM-ERCC5 /// ERCC5 / RFU, ILF3 / Fold change vs veh, ILF3 / RFU 11762660_at / Fold change /veh 11762660_at / RFU VCAN (11757783_s_at) / Fold change /veh VCAN (11757783_s_at) / RFU DDX43 (11728927_at) / Fold change /veh DDX43 (11728927_at) / RFU KRT8 (11758188_x_at) / Fold change /veh KRT8 (11758188_x_at) / RFU NKD1 (11759106_at) / Fold change /veh NKD1 (11759106_at) / RFU SRD5A1 (11742802_a_at) / Fold change /veh SRD5A1 (11742802_a_at) / RFU TPSAB1 /// TPSB2 (11721975_s_at) / Fold change /veh TPSAB1 /// TPSB2 (11721975_s_at) / RFU GSTM3 (11746129_a_at) / Fold change /veh GSTM3 (11746129_a_at) / RFU IL23R (11737362_x_at) / Fold change /veh IL23R (11737362_x_at) / RFU TMEM51 (11727254_a_at) / Fold change /veh TMEM51 (11727254_a_at) / RFU PIWIL2 (11732686_x_at) / Fold change /veh PIWIL2 (11732686_x_at) / RFU ORM1 (11744905_x_at) / Fold change /veh ORM1 (11744905_x_at) / RFU CCDC152 (11743942_at) / Fold change /veh CCDC152 (11743942_at) / RFU ECM1 (11717891_a_at) / Fold change /veh ECM1 (11717891_a_at) / RFU IL23R (11748794_a_at) / Fold change /veh IL23R (11748794_a_at) / RFU TNFAIP8L3 (11732012_x_at) / Fold change /veh TNFAIP8L3 (11732012_x_at) / RFU MBOAT4 (11741988_at) / Fold change /veh MBOAT4 (11741988_at) / RFU 11764193_at / Fold change /veh 11764193_at / RFU TMEM53 (11763286_at) / Fold change /veh TMEM53 (11763286_at) / RFU MAGEB2 (11727129_at) / Fold change /veh MAGEB2 (11727129_at) / RFU TMEM200A (11744735_a_at) / Fold change /veh TMEM200A (11744735_a_at) / RFU CCDC152 (11751479_a_at) / Fold change /veh CCDC152 (11751479_a_at) / RFU FAM211A (11726209_a_at) / Fold change /veh FAM211A (11726209_a_at) / RFU RGS16 (11746705_a_at) / Fold change /veh RGS16 (11746705_a_at) / RFU VCAN (11755009_s_at) / Fold change /veh VCAN (11755009_s_at) / RFU RHOB (11743442_s_at) / Fold change /veh RHOB (11743442_s_at) / RFU RGS16 (11720943_a_at) / Fold change /veh RGS16 (11720943_a_at) / RFU RGS16 (11720944_at) / Fold change /veh RGS16 (11720944_at) / RFU, VPS4B / Fold change vs veh, VPS4B / RFU, CREB1 / Fold change vs veh, CREB1 / RFU, DNAJC13 / Fold change vs veh, DNAJC13 / RFU, GNAQ / Fold change vs veh, GNAQ / RFU, CDK5R1 / Fold change vs veh, CDK5R1 / RFU, ZRANB3 / Fold change vs veh, ZRANB3 / RFU, CUL4A / Fold change vs veh, CUL4A / RFU, CCNY / Fold change vs veh, CCNY / RFU, UFL1 / Fold change vs veh, UFL1 / RFU, COG3 / Fold change vs veh, COG3 / RFU, DIAPH2 / Fold change vs veh, DIAPH2 / RFU, SKA2 / Fold change vs veh, SKA2 / RFU, AFF3 / Fold change vs veh, AFF3 / RFU, LMF1 / Fold change vs veh, LMF1 / RFU, IPO11 / Fold change vs veh, IPO11 / RFU, DFFB / Fold change vs veh, DFFB / RFU, FOXP1 / Fold change vs veh, FOXP1 / RFU, CARD8 / Fold change vs veh, CARD8 / RFU, STRN3 / Fold change vs veh, STRN3 / RFU, ADK / Fold change vs veh, ADK / RFU, RASSF2 / Fold change vs veh, RASSF2 / RFU, WIPF1 / Fold change vs veh, WIPF1 / RFU, LARP1B / Fold change vs veh, LARP1B / RFU, RASA1 / Fold change vs veh, RASA1 / RFU, RB1 / Fold change vs veh, RB1 / RFU, PPFIA1 / Fold change vs veh, PPFIA1 / RFU, MAT2A / Fold change vs veh, MAT2A / RFU, CCT5 / Fold change vs veh, CCT5 / RFU, WDR92 / Fold change vs veh, WDR92 / RFU, CUX1 / Fold change vs veh, CUX1 / RFU, TTC7A / Fold change vs veh, TTC7A / RFU, TMEM135 / Fold change vs veh, TMEM135 / RFU, DEPTOR / Fold change vs veh, DEPTOR / RFU, CPM / Fold change vs veh, CPM / RFU, DNAJB6 / Fold change vs veh, DNAJB6 / RFU, CACNA2D3 / Fold change vs veh, CACNA2D3 / RFU, DTX4 / Fold change vs veh, DTX4 / RFU, TFCP2 / Fold change vs veh, TFCP2 / RFU, GMCL1 /// GMCL1P1 / Fold change vs veh, GMCL1 /// GMCL1P1 / RFU, AEBP2 / Fold change vs veh, AEBP2 / RFU, SNHG1 /// SNORD22 /// SNORD25 /// SNORD26 /// SNORD27 /// SNORD28 /// SNORD29 /// SNORD31 / Fold change vs veh, SNHG1 /// SNORD22 /// SNORD25 /// SNORD26 /// SNORD27 /// SNORD28 /// SNORD29 /// SNORD31 / Fold change (Aza/veh), C12orf56 (ProbeSet 11735607_a_at) / Fold change (ACY-1035/veh), C12orf56 (ProbeSet 11735607_a_at) / Fold change (Aza/veh), FGFR1OP (ProbeSet 11751329_s_at) / Fold change (ACY-1035/veh), FGFR1OP (ProbeSet 11751329_s_at) / Fold change (Aza/veh), VPS36 (ProbeSet 11739960_a_at) / Fold change (ACY-1035/veh), VPS36 (ProbeSet 11739960_a_at) / RFU SYPL1 (11715823_x_at) / Fold change /veh SYPL1 (11715823_x_at) / RFU IGFBP7 (11715501_s_at) / Fold change /veh IGFBP7 (11715501_s_at) / RFU REEP3 (11722064_at) / Fold change /veh REEP3 (11722064_at) / RFU IGLL1 (11728026_x_at) / Fold change /veh IGLL1 (11728026_x_at): dose or concentration left out as unconfirmed
Conditions: ProbeSet 11718569_a_at; LIST D

## Nc1ncn([C@@H]2O[C@H](CO)[C@@H](O)[C@H]2O)c(=O)n1 [azacitidine]
  Fold change vs veh, WIPF1: 0.72
